The numbers were not newly measured in US20070289889A1, “Biomarkers For The Prediction Of Drug-In Duced Diarrhea” (NOVARTIS AG, priority 2003, published 2007), which cites them from elsewhere.

The conditions of the series: anticancer drugs targeted to inhibit the cell cycle, literature; cited from earlier work.

Each structure is given as a SMILES string.

Turning to `CCc1c2c(nc3ccc(OC(=O)N4CCC(N5CCCCC5)CC4)cc13)-c1cc3c(c(=O)n1C2)COC(=O)[C@]3(O)CC` [CPT-11], the drug-induced diarrhoea result is “Diarrhoea has been reported”.
